What follows are molecules tested against T1, human GCS (glucosylceramide synthase) (Homo sapiens, UniProt Q16739) (assay: Glucosylceramide Synthase (GCS) Assay). Conditions: test compound 10 μM; microsome fraction of Expi293F cells expressing human GCS; 1.7 μM UDP-glucose, 3 μM C8 ceramide; room temperature 60 min; C8 glucosylceramide by Rapidfire MS/MS.
T1 construct: made in house; host or cells: Expi293F cells (transient expression; microsome fraction)
T1 sequence (Q16739 1-394): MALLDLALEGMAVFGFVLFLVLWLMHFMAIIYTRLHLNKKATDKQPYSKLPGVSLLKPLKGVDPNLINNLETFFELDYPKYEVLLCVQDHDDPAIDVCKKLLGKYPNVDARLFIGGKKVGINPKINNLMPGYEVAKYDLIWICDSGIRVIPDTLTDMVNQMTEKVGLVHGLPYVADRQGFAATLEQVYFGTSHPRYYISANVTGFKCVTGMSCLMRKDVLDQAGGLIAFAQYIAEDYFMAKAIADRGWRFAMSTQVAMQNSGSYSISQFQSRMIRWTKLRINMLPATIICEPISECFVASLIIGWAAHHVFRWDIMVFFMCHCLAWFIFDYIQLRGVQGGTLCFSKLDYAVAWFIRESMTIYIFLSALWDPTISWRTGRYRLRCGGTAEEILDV
Assay type: biochemical
Method: In enzyme assay, a microsome fraction obtained by transient expression by Expi293F™ cells (catalog number: A14527, Thermo Fisher Scientific) was used as a glucosylceramide synthase source. Liposomal C8 ceramide and UDP-glucose were used as substrates. For each substrate concentration, 1.7 μM UDP-glucose, which is equal to the Km value, and 3 μM C8 ceramide were used. After the enzymatic reaction, the analysis was performed with Rapidfire MS/MS (API-4000™, SCIEX), and C8 glucosylceramide was quantified to evaluate the inhibitory activity of the test compound against glucosylceramide synthase activity.
PcDNA3.3TOPO vector (catalog number: K830001, Thermo Fisher Scientific) into which the human GCS gene was inserted was introduced into Expi293F™ Cells (catalog number: A14527, Thermo Fisher Scientific) by using ExpiFectamine™ 293 Transfection Kit (catalog number: A14525, Thermo Fisher Scientific). The cultured cells were dissolved in D-PBS (catalog number: 048-29805, Fuji Film Wako Pure Chemical Industries, Ltd.) containing 1 mM PMSF, and the solution was allowed to stand on ice for 30 minutes, and then subjected to cell disruption (homogenized). The disruption solution was centrifuged at 10,000×g for 20 minutes at 4° C., and the obtained supernatant was centrifuged at 142,400×g for 60 minutes at 4° C. The obtained precipitate was resuspended in a D-PBS solution containing 1 mM PMSF, and homogenized again to prepare as a microsome fraction. Protein quantification was performed by the CBB method.
A 1 mM compound solution prepared by dissolving the test compound in DMSO was added to a 384-well plate by 100 nL so that the final concentration of the test compound was 10 μM. Next, a substrate solution consisting of 3.4 μM UDP-glucose and 6 μM C8 ceramide was added by 5 μL, followed by an enzyme solution consisting of a 25 μg/mL microsome fraction by 5 μL. C8 ceramide was prepared from liposomes composed of 15 mol % C8 ceramide and 85 mol % dioleoyl phosphatidylcholine (1,2-dioleoyl-sn-glycero-3-phosphocholine: DOPC). The enzymatic reaction was carried out in a solution consisting of 20 mM tris-hydrochloric acid buffer (pH 7.5), 0.01% Tween 20, 0.01% bovine serum albumin and 1 mM dithiothreitol at room temperature for 60 min. Then, a solution consisting of 75% isopropanol and 1% formic acid containing 0.25 μM N-Octadecanoyl-D35-psichosine (catalog number: 1914, Matreya) as an internal standard substance was added by 60 μL to stop the enzymatic reaction. 5 μL of the centrifugal supernatant of the obtained reaction product was analyzed by Rapidfire MS/MS (Agilent Technologies) using API-4000™ (SCIEX), and the C8 glucosylceramide was quantified to evaluate the inhibitory activity of the test compound against the glucosylceramide synthase activity. The inhibitory activity of the test compound was evaluated when the C8 glucosylceramide level in the enzyme-free solution was considered as 100% inhibitory and the enzyme activity of the DMSO group in the absence of the compound was considered as 0% inhibitory.

| GCS enzyme inhibitory rate at 10 μM (%) | Compound |
| --- | --- |
| 97 | O=C(Nc1ccc(C(O)C2CC2)nc1)c1cccn(-c2ccc(F)cc2OCC(F)(F)F)c1=O (single isomer, unassigned) [Example 116, (R or S)-N-{6-[cyclopropyl(hydroxy)methyl]pyridin-3-yl}-1-[4-fluoro-2-(2,2,2-trifluoroethoxy)phenyl]-2-oxo-1,2-dihydropyridine-3-carboxamide] |

Same assay, conditions: test compound 10 μM; microsome fraction of Expi293F cells expressing human GCS; 1.7 μM UDP-glucose, 3 μM C8 ceramide; room temperature 60 min; C8 glucosylceramide by Rapidfire MS/MS; read-out: GCS enzyme inhibitory rate at 10 μM (%)

| inhibition at 10 µM [%] | Compound |
| --- | --- |
| 100 | O=C(Nc1ccc(C(O)(C(F)F)C(F)F)cc1)c1cn(C2CCOC2)nc(-c2ccccc2OCC(F)F)c1=O (racemic) [Example 196, rac-6-[2-(2,2-difluoroethoxy)phenyl]-5-oxo-2-(oxolan-3-yl)-N-[4-(1,1,3,3-tetrafluoro-2-hydroxypropan-2-yl)phenyl]-2,5-dihydropyridazine-4-carboxamide] |
| 100 | CC(O)c1cc(C(=O)Nc2ccc(OC(F)F)cc2)c(=O)n(-c2ccccc2OCC(F)(F)F)n1 (racemic) [Example 199, rac-N-[4-(difluoromethoxy)phenyl]-6-(1-hydroxyethyl)-3-oxo-2-[2-(2,2,2-trifluoroethoxy)phenyl]-2,3-dihydropyridazine-4-carboxamide] |
| 86 | O=C(Nc1ccc(C(O)C2CC2)nc1)c1cccn(-c2ccc(F)cc2OCC(F)(F)F)c1=O (single isomer, unassigned) [Example 115, (R or S)-N-{6-[cyclopropyl(hydroxy)methyl]pyridin-3-yl}-1-[4-fluoro-2-(2,2,2-trifluoroethoxy)phenyl]-2-oxo-1,2-dihydropyridine-3-carboxamide] |
| 71 | COc1ccccc1-n1c(C)ccc(C(=O)Nc2ccc(Oc3ccccc3)cc2)c1=O [Example 1, 1-(2-methoxyphenyl)-6-methyl-2-oxo-N-(4-phenoxyphenyl)-1,2-dihydropyridine-3-carboxamide] |
| 95 | COc1ccccc1-n1cccc(C(=O)Nc2ccc(Oc3ccccc3)cc2)c1=O [Example 2, 1-(2-methoxyphenyl)-2-oxo-N-(4-phenoxyphenyl)-1,2-dihydropyridine-3-carboxamide] |
| 92 | COc1cc(F)ccc1-n1cccc(C(=O)Nc2ccc(Oc3ccccc3)cc2)c1=O [Example 3, 1-(4-fluoro-2-methoxyphenyl)-2-oxo-N-(4-phenoxyphenyl)-1,2-dihydropyridine-3-carboxamide] |
| 93 | O=C(Nc1ccc(Oc2ccccc2)cc1)c1cccn(-c2ccccc2N2CCOCC2)c1=O [Example 4, 1-[2-(morpholin-4-yl)phenyl]-2-oxo-N-(4-phenoxyphenyl)-1,2-dihydropyridine-3-carboxamide] |
| 68 | COc1cc(F)ccc1-n1cccc(C(=O)Nc2ccc(OCC(F)(F)F)nc2)c1=O [Example 5, 1-(4-fluoro-2-methoxyphenyl)-2-oxo-N-[6-(2,2,2-trifluoroethoxy)pyridin-3-yl]-1,2-dihydropyridine-3-carboxamide] |
| 52 | COc1cc(F)ccc1-n1cccc(C(=O)Nc2ccc(OC(F)(F)F)cc2)c1=O [Example 6, 1-(4-fluoro-2-methoxyphenyl)-2-oxo-N-[4-(trifluoromethoxy)phenyl]-1,2-dihydropyridine-3-carboxamide] |
| 57 | COc1cc(F)ccc1-n1cccc(C(=O)Nc2ccc(C3CC3)nc2)c1=O [Example 7, N-(6-cyclopropylpyridin-3-yl)-1-(4-fluoro-2-methoxyphenyl)-2-oxo-1,2-dihydropyridine-3-carboxamide] |
| 66 | COc1cc(F)ccc1-n1cccc(C(=O)Nc2ccn(-c3ccc(F)cc3)n2)c1=O [Example 8, 1-(4-fluoro-2-methoxyphenyl)-N-[1-(4-fluorophenyl)-1H-pyrazol-3-yl]-2-oxo-1,2-dihydropyridine-3-carboxamide] |
| 88 | COc1cc(F)ccc1-n1cccc(C(=O)Nc2ccc(C(F)(F)F)cc2)c1=O [Example 11, 1-(4-fluoro-2-methoxyphenyl)-2-oxo-N-[4-(trifluoromethyl)phenyl]-1,2-dihydropyridine-3-carboxamide] |
| 97 | O=C(Nc1ccn(-c2ccc(F)cc2)n1)c1cccn(-c2ccccc2OCC(F)(F)F)c1=O [Example 12, N-[1-(4-fluorophenyl)-1H-pyrazol-3-yl]-2-oxo-1-[2-(2,2,2-trifluoroethoxy)phenyl]-1,2-dihydropyridine-3-carboxamide] |
| 96 | COc1ccc(NC(=O)c2cccn(-c3ccccc3OCC(F)(F)F)c2=O)cn1 [Example 13, N-(6-methoxypyridin-3-yl)-2-oxo-1-[2-(2,2,2-trifluoroethoxy)phenyl]-1,2-dihydropyridine-3-carboxamide] |
| 99 | O=C(Nc1ccc(Cl)cc1)c1cccn(-c2ccccc2OCC(F)(F)F)c1=O [Example 14, N-(4-chlorophenyl)-2-oxo-1-[2-(2,2,2-trifluoroethoxy)phenyl]-1,2-dihydropyridine-3-carboxamide] |
| 100 | O=C(Nc1ccc(OCC(F)(F)F)nc1)c1cccn(-c2ccccc2OCC(F)(F)F)c1=O [Example 15, 2-oxo-1-[2-(2,2,2-trifluoroethoxy)phenyl]-N-[6-(2,2,2-trifluoroethoxy)pyridin-3-yl]-1,2-dihydropyridine-3-carboxamide] |
| 69 | COc1cc(F)ccc1-n1cccc(C(=O)Nc2ccc(OC(F)F)nc2)c1=O [Example 16, N-[6-(difluoromethoxy)pyridin-3-yl]-1-(4-fluoro-2-methoxyphenyl)-2-oxo-1,2-dihydropyridine-3-carboxamide] |
| 81 | O=C(Nc1ccc(Oc2ccccc2)cc1)c1cccn(-c2ccc(F)cc2N2CCOCC2)c1=O [Example 17, 1-[4-fluoro-2-(morpholin-4-yl)phenyl]-2-oxo-N-(4-phenoxyphenyl)-1,2-dihydropyridine-3-carboxamide] |
| 76 | COc1cc(F)ccc1-n1nccc(C(=O)Nc2ccc(Oc3ccccc3)cc2)c1=O [Example 18, 2-(4-fluoro-2-methoxyphenyl)-3-oxo-N-(4-phenoxyphenyl)-2,3-dihydropyridazine-4-carboxamide] |
| 55 | COc1cc(F)ccc1-n1cccc(C(=O)Nc2ccc(N3CCOCC3)cc2)c1=O [Example 19, 1-(4-fluoro-2-methoxyphenyl)-N-[4-(morpholin-4-yl)phenyl]-2-oxo-1,2-dihydropyridine-3-carboxamide] |
| 100 | O=C(Nc1ccc(C(F)(F)F)nc1)c1cccn(-c2ccccc2OCC(F)(F)F)c1=O [Example 20, 2-oxo-1-[2-(2,2,2-trifluoroethoxy)phenyl]-N-[6-(trifluoromethyl)pyridin-3-yl]-1,2-dihydropyridine-3-carboxamide] |
| 99 | O=C(Nc1ccc(C2CC2)cn1)c1cccn(-c2ccccc2OCC(F)(F)F)c1=O [Example 21, N-(5-cyclopropylpyridin-2-yl)-2-oxo-1-[2-(2,2,2-trifluoroethoxy)phenyl]-1,2-dihydropyridine-3-carboxamide] |
| 77 | O=C(Nc1ccn(CC(F)(F)F)n1)c1cccn(-c2ccccc2OCC(F)(F)F)c1=O [Example 22, 2-oxo-1-[2-(2,2,2-trifluoroethoxy)phenyl]-N-[1-(2,2,2-trifluoroethyl)-1H-pyrazol-3-yl]-1,2-dihydropyridine-3-carboxamide] |

Source: patent US20220289679A1, “HETEROCYCLIC COMPOUND” (Takeda Pharmaceutical Company Limited, priority 2019, published 2022)
